Data reported in patent US20100249145A1, “Inhibitors of VEGF Receptor and HGF Receptor Signaling” (Methylgene, Inc., priority 2005, published 2010).

Key:
[1] = tested on: A549; assay: A549 wound healing inhibition (HGF dependent migration); type: cell-based; conditions: Homo sapiens, Table 31, read-out: A549 wound healing inbib IC50
Source text: (§1) HGF has well known activity in terms of inducing scattering and migration (wound healing) (Wells et al., Cell Motil Cytoskeleton. 2005 November 62(3):180-94; Miura et al., Urology 2001 December 58(6):1064-9; Nishimura et al., Int J. Urol. 1998 May 5(3):276-81; Wang et al., Mol Cancer Ther. 2003 November; 2(11):1085-92; and Christensen et al., Cancer Res. 2003 Nov. 1; 63(21):7345-55).

[2] = target: T1, recombinant human c-Met/HGF receptor (Homo sapiens, UniProt P08581); assay: In vitro receptor tyrosine kinase assay (DELFIA), c-Met/HGF receptor; type: biochemical; conditions: Table 31; ATP 10 uM, enzyme 25 nM; read-out: CMet ic50
T1 construct: His tag (histidine tag from pBlueBacHis2A); made in house; host or cells: Hi-5 cells (Trichoplusia ni), recombinant baculovirus

[3] = tested on: DU145; assay: DU145 scattering inhibition (HGF dependent scattering); type: cell-based; conditions: Homo sapiens, DU-145, Table 31, read-out: DU145 scattering inhib IC50
Source text: as §1

[4] = target: T2, VEGF receptor KDR (Homo sapiens, UniProt P35968); assay: In vitro receptor tyrosine kinase assay (DELFIA), VEGF receptor KDR; type: biochemical; conditions: Table 31; ATP 0.6 uM, enzyme 5 nM; read-out: VEGFR IC50
T2 construct: made in house; host or cells: Sf9 cells (Spodoptera frugiperda), recombinant baculovirus
Source text: In Vitro Receptor Tyrosine Kinase Assays (c-Met/HGF receptor and VEGF Receptor KDR)
In the case of VEGF receptor KDR a 1.6-kb cDNA corresponding to the catalytic domain of VEGFR2 or KDR (Genbank accession number AF035121 amino acid 806 to 1356) was cloned into the Pst I site of the pDEST20 Gateway vector (Invitrogen) for the production of a GST-tagged version of that enzyme.
The GST-VEGFR2806-1356 protein was expressed in Sf9 cells (Spodoptera frugiperda) upon infection with recombinant baculovirus construct.
The supernatant was loaded onto a GST-agarose column (Sigma) equilibrated with PBS pH 7.3. Following a four column volume (CV) wash with PBS pH 7.3+1% Triton X-100 and 4 CV wash with buffer B (50 mM Tris pH 8.0, 20% glycerol and 100 mM NaCl), bound proteins were step eluted with 5 CV of buffer B supplemented with 5 mM DTT and 15 mM glutathion. […] Final GST-VEGFR2806-1356 protein preparations concentrations were about 0.7 mg/ml with purity approximating 70%.

T2 sequence (P35968 806-1356): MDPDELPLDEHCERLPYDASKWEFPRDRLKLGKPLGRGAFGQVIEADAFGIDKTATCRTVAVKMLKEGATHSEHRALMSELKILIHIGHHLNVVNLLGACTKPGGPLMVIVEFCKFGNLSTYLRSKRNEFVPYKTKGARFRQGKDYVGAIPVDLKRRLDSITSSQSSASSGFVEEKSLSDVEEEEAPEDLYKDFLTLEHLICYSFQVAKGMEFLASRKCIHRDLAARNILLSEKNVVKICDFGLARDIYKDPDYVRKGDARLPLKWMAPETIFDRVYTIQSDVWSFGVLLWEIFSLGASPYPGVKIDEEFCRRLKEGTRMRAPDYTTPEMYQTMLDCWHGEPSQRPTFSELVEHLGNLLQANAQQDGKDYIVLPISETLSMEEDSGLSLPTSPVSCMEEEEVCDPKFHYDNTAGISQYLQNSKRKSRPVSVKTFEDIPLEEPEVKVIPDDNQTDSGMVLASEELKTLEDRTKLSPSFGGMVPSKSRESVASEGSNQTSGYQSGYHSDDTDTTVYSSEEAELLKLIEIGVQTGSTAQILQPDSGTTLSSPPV
T1 sequence (P08581 1078-1337): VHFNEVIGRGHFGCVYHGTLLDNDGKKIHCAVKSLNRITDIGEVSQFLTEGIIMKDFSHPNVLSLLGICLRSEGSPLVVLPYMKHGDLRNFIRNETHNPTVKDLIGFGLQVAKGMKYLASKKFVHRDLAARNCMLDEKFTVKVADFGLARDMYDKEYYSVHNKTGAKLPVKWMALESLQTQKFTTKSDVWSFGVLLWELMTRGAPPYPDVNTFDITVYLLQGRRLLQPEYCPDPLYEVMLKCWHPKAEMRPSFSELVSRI

Compound	IC50 [1] [nM]	IC50 [2] [nM]	IC50 [3] [nM]	IC50 [4] [nM]
CO/N=C(\C)c1cc2nccc(Oc3ccc(NC(=S)NC(=O)Cc4ccccc4)cc3F)c2s1	1000 to 5000	< 50	1000 to 5000	50 to 250
CC(C(=O)NC(=S)Nc1ccc(Oc2ccnc3cc(-c4nccn4C)sc23)c(F)c1)c1ccccc1 (stereo not shown)	< 1000	50 to 250	< 1000	50 to 250
CN(c1ccc(NC(=S)NC(=O)Cc2ccccc2)cc1F)c1ccnc2ccsc12	5000 to 10000	250 to 500	5000 to 10000	> 500
CN(c1ccc(NC(=S)NC(=O)Cc2ccccc2)cc1F)c1ccnc2cc(-c3nccn3C)sc12	< 1000	< 50	< 1000	> 500
O=C(Cc1ccccc1)NC(=S)Nc1ccc(Nc2ccnc3ccsc23)c(F)c1	< 1000	50 to 250	1000 to 5000	> 500
Cn1cnc(-c2cc3nccc(Nc4ccc(NC(=S)NC(=O)Cc5ccccc5)cc4F)c3s2)c1	< 1000	< 50	< 1000	> 500
CN1CCN(CCN(C)Cc2ccc(-c3cc4nccc(Oc5ccc(NC(=S)NC(=O)Cc6ccccc6)cc5F)c4s3)cc2)CC1	< 1000	< 50	< 1000	< 50
CN(c1ccc(NC(=S)NC(=O)Cc2ccccc2)cc1F)c1ccnc2cc(-c3cn(C)cn3)sc12	< 1000	< 50	< 1000	> 500
CN1CCN(Cc2ccc(-c3cc4nccc(Oc5ccc(NC(=S)NC(=O)Cc6ccccc6)cc5F)c4s3)nc2)CC1	< 1000	< 50	< 1000	< 50
O=C(Cc1ccccc1)NC(=S)Nc1ccc(Oc2ccnc3cc(-c4cn(CCN5CCCC5)cn4)sc23)c(F)c1	5000 to 10000	< 50	< 1000	< 50
COc1cccc(Nc2cc3nccc(Oc4ccc(NC(=S)NC(=O)Cc5ccccc5OC)cc4F)c3s2)c1	1000 to 5000	50 to 250	1000 to 5000	> 500
CN(CCO)Cc1ccc(-c2cc3nccc(Oc4ccc(NC(=S)NC(=O)Cc5ccccc5)cc4F)c3s2)cc1	< 1000	< 50	< 1000	< 50
CN1CCN(Cc2ccc(-c3cc4nccc(Oc5ccc(NC(=S)NC(=O)Cc6ccccc6)cc5F)c4s3)cc2)CC1	< 1000	< 50	< 1000	< 50
Cn1ccnc1-c1cc2nccc(Sc3ccc(NC(=S)NC(=O)Cc4ccccc4)cc3)c2s1	< 1000	< 50	< 1000	> 500
CN1CC=C(c2cc3nccc(Oc4ccc(NC(=S)NC(=O)Cc5ccccc5)cc4F)c3s2)CC1	< 1000	< 50	< 1000	250 to 500
O=C(Cc1ccccc1)NC(=S)Nc1ccc(Oc2ccnc3cc(-c4ccc(CN5CCNCC5)cc4)sc23)c(F)c1	1000 to 5000	< 50	< 1000	< 50
CCNC(=O)N1CCN(Cc2ccc(-c3cc4nccc(Oc5ccc(NC(=S)NC(=O)Cc6ccccc6)cc5F)c4s3)cc2)CC1	< 1000	< 50	< 1000	< 50
CCn1cnc(-c2cc3nccc(Oc4ccc(NC(=S)NC(=O)Cc5ccc(F)cc5F)cc4F)c3s2)c1	1000 to 5000	< 50	< 1000	< 50
CN1CC=C(c2cc3nccc(Oc4ccc(NC(=S)NC(=O)Cc5ccc(F)cc5)cc4F)c3s2)CC1	< 1000	< 50	< 1000	250 to 500

Compound	IC50 [1] [nM]	IC50 [2] [nM]	IC50 [3] [nM]	IC50 [4] [nM]
CCn1cnc(-c2cc3nccc(Oc4ccc(NC(=S)NC(=O)Cc5ccc(F)cc5)cc4F)c3s2)c1	< 1000	< 50	< 1000	< 50
O=C(Cc1ccccc1)NC(=S)Nc1ccc(Oc2ccnc3cc(-c4ccc(CN5CCCC5)cn4)sc23)c(F)c1	< 1000	< 50	< 1000	< 50
CCn1ccnc1-c1cc2nccc(Oc3ccc(NC(=S)NC(=O)Cc4ccc(F)cc4F)cc3F)c2s1	< 1000	< 50	< 1000	50 to 250
Cn1ccnc1-c1cc2nccc(Oc3ccc(NC(=S)NC(=O)Cc4ccc(F)cc4F)cc3F)c2s1	< 1000	< 50	< 1000	< 50
C#Cc1cccc(F)c1CC(=O)NC(=S)Nc1ccc(Oc2ccnc3cc(-c4cn(C)cn4)sc23)c(F)c1	< 1000	< 50	< 1000	< 50
C#Cc1ccccc1CC(=O)NC(=S)Nc1ccc(Oc2ccnc3cc(-c4ccc(CNCCOC)cn4)sc23)c(F)c1	< 1000	< 50	< 1000	< 50
C#Cc1ccccc1CC(=O)NC(=S)Nc1ccc(Oc2ccnc3cc(-c4cccc[n+]4[O-])sc23)c(F)c1	< 1000	< 50	< 1000	< 50
O=C(Cc1ccc(F)cc1)NC(=S)Nc1ccc(Oc2ccnc3cc(-c4cccc[n+]4[O-])sc23)c(F)c1	< 1000	< 50	< 1000	< 50
O=C(Cc1ccc(F)cc1)NC(=S)Nc1ccc(Oc2ccnc3cc(-c4cc[n+]([O-])cc4)sc23)c(F)c1	< 1000	< 50	< 1000	50 to 250
C#Cc1cc(F)ccc1CC(=O)NC(=S)Nc1ccc(Oc2ccnc3cc(-c4cccc[n+]4[O-])sc23)c(F)c1	< 1000	< 50	< 1000	< 50
C=C(F)c1ccccc1CC(=O)NC(=S)Nc1ccc(Oc2ccnc3cc(-c4cn(C)cn4)sc23)c(F)c1	< 1000	< 50	< 1000	< 50
C=C(F)c1cccc(CC(=O)NC(=S)Nc2ccc(Oc3ccnc4cc(-c5cn(C)cn5)sc34)c(F)c2)c1	1000 to 5000	50 to 250	1000 to 5000	50 to 250
CC(=O)N1CC=C(c2cc3nccc(Oc4ccc(NC(=S)NC(=O)Cc5ccc(F)cc5)cc4F)c3s2)CC1	< 1000	< 50	< 1000	< 50
CCN(CCOC)Cc1ccc(-c2cc3nccc(Oc4ccc(NC(=S)NC(=O)Cc5ccc(F)cc5)cc4F)c3s2)cc1	< 1000	< 50	< 1000	< 50
CS(=O)(=O)c1ccc(-c2cc3nccc(Oc4ccc(NC(=S)NC(=O)Cc5ccc(F)cc5)cc4F)c3s2)cc1	< 1000	< 50	< 1000	50 to 250
CN(C)C(=O)c1ccc(-c2cc3nccc(Oc4ccc(NC(=S)NC(=O)Cc5ccc(F)cc5)cc4F)c3s2)cc1	< 1000	< 50	< 1000	< 50
COCCNCc1cccc(-c2cc3nccc(Oc4ccc(NC(=S)NC(=O)Cc5ccc(F)cc5)cc4F)c3s2)n1	< 1000	< 50	< 1000	250 to 500
COCCNCc1ccc(-c2cc3nccc(Oc4ccc(NC(=O)NC(=O)Cc5ccc(F)cc5)cc4F)c3s2)cc1	< 1000	< 50	< 1000	50 to 250
